Data published in patent US11014911B2, “CDK2 inhibitors” (Pfizer Inc., priority 2019, dated 2021).

How the values were obtained:
[1] = molecular target: CDK2/Cyclin E1 full length (Homo sapiens (Human), UniProt P24941); assay: CDK2/Cyclin E1 full length mobility shift assay; format: biochemical
[2] = molecular target: GSK3β (H350L) (Homo sapiens (Human), UniProt P49841); settings: read-out: GSK3β Ki
GSK3β (H350L), sequence (P49841 whole entry, stated change not applied): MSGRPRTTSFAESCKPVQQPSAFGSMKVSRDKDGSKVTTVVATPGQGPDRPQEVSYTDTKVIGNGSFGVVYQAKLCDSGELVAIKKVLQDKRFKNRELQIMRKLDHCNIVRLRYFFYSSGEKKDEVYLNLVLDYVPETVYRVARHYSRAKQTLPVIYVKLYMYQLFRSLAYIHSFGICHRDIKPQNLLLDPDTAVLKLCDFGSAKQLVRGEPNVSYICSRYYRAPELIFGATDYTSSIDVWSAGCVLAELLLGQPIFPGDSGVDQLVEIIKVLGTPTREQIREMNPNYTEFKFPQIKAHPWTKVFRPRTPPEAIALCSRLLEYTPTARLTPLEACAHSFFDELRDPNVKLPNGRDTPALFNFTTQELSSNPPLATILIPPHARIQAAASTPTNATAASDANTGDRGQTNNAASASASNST
Description: The assay was initiated with the addition of ATP, following 15 minutes pre-incubation of enzyme and inhibitor at room temperature in the reaction mixture. The reaction was stopped after 30 minutes at room temperature by the addition of 50 μL of 80 mM EDTA.

Row | SMILES | Ki [1] [nM] | Ki [2] [nM]
1 | CC[C@H](C)NC(=O)O[C@@H]1CC[C@H](c2cc(NC(=O)Cc3cnn(C)c3)n[nH]2)C1 [Example 327, (1R,3S)-3-(3-{[(1-methyl-1H-pyrazol-4-yl)acetyl]amino}-1H-pyrazol-5-yl)cyclopentyl (2S)-butan-2-ylcarbamate] | 0.44 | 57.8
2 | Cc1coc(CC(=O)Nc2cc([C@H]3CC[C@@H](OC(=O)N[C@@H](C)CC(F)(F)F)C3)[nH]n2)n1 [Example 93] | 0.22 | 7.64
3 | COCc1cc(C(=O)Nc2cc([C@H]3CC[C@@H](OC(=O)NC(C)(C)C)C3)[nH]n2)n(C)n1 [Example 111] | 0.38 | 772
4 | COc1cc(CC(=O)Nc2cc([C@H]3CC[C@@H](OC(=O)NC(C)C)C3)[nH]n2)ccn1 [Example 276, (1R,3S)-3-(3-{[(2-methoxypyridin-4-yl)acetyl]amino}-1H-pyrazol-5-yl)cyclopentyl propan-2-ylcarbamate] | 0.64 | 33.1
5 | Cc1cc(CC(=O)Nc2cc([C@@H]3CC[C@H](OC(=O)N[C@H]4CC[C@@H](O)CC4)C3)[nH]n2)ccn1 [Example 544, (1S,3R)-3-(3-{[(2-methylpyridin-4-yl)acetyl]amino}-1H-pyrazol-5-yl)cyclopentyl (cis-4-hydroxycyclohexyl)carbamate] | 0.54 | 1.96
6 | Cc1ncc(CC(=O)Nc2cc([C@@H]3CC[C@H](OC(=O)N[C@H]4CC[C@H](O)CC4)C3)[nH]n2)s1 [Example 551, (1S,3R)-3-(3-{[(2-methyl-1,3-thiazol-5-yl)acetyl]amino}-1H-pyrazol-5-yl)cyclopentyl (trans-4-hydroxycyclohexyl)carbamate] | 0.34 | 2.94
7 | CC[C@@H](C)NC(=O)O[C@@H]1CC[C@H](c2cc(NC(=O)Cc3ccno3)n[nH]2)C1 [Example 322, (1R,3S)-3-{3-[(1,2-oxazol-5-ylacetyl)amino]-1H-pyrazol-5-yl}cyclopentyl (2R)-butan-2-ylcarbamate] | 0.93 | 81.2
8 | Cc1nnc(CC(=O)Nc2cc([C@H]3CC[C@@H](OC(=O)NC(C)(C)C)C3)[nH]n2)o1 [Example 298, (1R,3S)-3-(3-{[(5-methyl-1,3,4-oxadiazol-2-yl)acetyl]amino}-1H-pyrazol-5-yl)cyclopentyl tert-butylcarbamate] | 0.68 | 72
9 | CCCNC(=O)O[C@@H]1CC[C@H](c2cc(NC(=O)c3ccc(C)nc3C)n[nH]2)C1 [Example 181, (1R,3S)-3-(3-{[(2,6-dimethylpyridin-3-yl)carbonyl]amino}-1H-pyrazol-5-yl)cyclopentyl propylcarbamate] | 3.91 | > 191
10 | COc1ccc(CC(=O)Nc2cc([C@@H]3CC[C@H](OC(=O)N[C@H]4CC[C@@](C)(O)CC4)C3)[nH]n2)cn1 [Example 570, (1S,3R)-3-(3-{[(6-methoxypyridin-3-yl)acetyl]amino}-1H-pyrazol-5-yl)cyclopentyl (cis-4-hydroxy-4-methylcyclohexyl)carbamate] | 0.35 | 3.29
11 | COc1cccc(CC(=O)Nc2cc([C@H]3CC[C@@H](OC(=O)NC4(C)CC4)C3)[nH]n2)n1 [Example 434, (1R,3S)-3-(3-{[(6-methoxypyridin-2-yl)acetyl]amino}-1H-pyrazol-5-yl)cyclopentyl (1-methylcyclopropyl)carbamate] | 0.48 | 39.8
12 | CC[C@H](C)NC(=O)O[C@@H]1CC[C@H](c2cc(NC(=O)Cc3ccccc3)n[nH]2)C1 [Example 38] | 0.18 | 69.7
13 | CCCNC(=O)O[C@@H]1CC[C@H](c2cc(NC(=O)Cc3cnc(C)s3)n[nH]2)C1 [Example 185, (1R,3S)-3-(3-{[(2-methyl-1,3-thiazol-5-yl)acetyl]amino}-1H-pyrazol-5-yl)cyclopentyl propylcarbamate] | 0.71 | 13
14 | CCCNC(=O)O[C@@H]1CC[C@H](c2cc(NC(=O)Cc3cnc(C)o3)n[nH]2)C1 [Example 176, (1R,3S)-3-(3-{[(2-methyl-1,3-oxazol-5-yl)acetyl]amino}-1H-pyrazol-5-yl)cyclopentyl propylcarbamate] | 2.5 | 46.1
15 | C[C@]1(O)CC[C@@H](NC(=O)O[C@@H]2CC[C@H](c3cc(NC(=O)Cc4cc(F)cc(F)c4)n[nH]3)C2)CC1 [Example 572, (1R,3S)-3-(3-{[(3,5-difluorophenyl)acetyl]amino}-1H-pyrazol-5-yl)cyclopentyl (cis-4-hydroxy-4-methylcyclohexyl)carbamate] | 0.37 | 24.2
16 | C[C@H]1C[C@H](C)N1C(=O)O[C@@H]1CC[C@H](c2cc(NC(=O)Cc3cnn(C)c3)n[nH]2)C1 [Example 605, (1R,3S)-3-(3-{[(1-methyl-1H-pyrazol-4-yl)acetyl]amino}-1H-pyrazol-5-yl)cyclopentyl (2S,4S)-2,4-dimethylazetidine-1-carboxylate] | 0.32 | 9.89
17 | Cc1cc(CC(=O)Nc2cc([C@H]3CC[C@@H](OC(=O)N4[C@@H](C)C[C@@H]4C)C3)[nH]n2)on1 [Example 150] | 0.25 | 8.35
18 | CC[C@H](C)NC(=O)O[C@@H]1CC[C@H](c2cc(NC(=O)Cc3cc(O)ncc3S(C)(=O)=O)n[nH]2)C1 [Example 52] | 0.2 | 10.9

Row | SMILES | Ki [1] [nM] | Ki [2] [nM]
19 | CC[C@H](C)NC(=O)O[C@H]1CC[C@@H](c2cc(NC(=O)c3cnnn3C)n[nH]2)C1 [Example 31] | 0.16 | 45.1
20 | CC[C@H](C)NC(=O)O[C@@H]1CC[C@H](c2cc(NC(=O)Cc3cn4nc(C)sc4n3)n[nH]2)C1 [Example 359, (1R,3S)-3-(3-{[(2-methylimidazo[2,1-b][1,3,4]thiadiazol-6-yl)acetyl]amino}-1H-pyrazol-5-yl)cyclopentyl (2S)-butan-2-ylcarbamate] | 0.39 | 28.5
21 | Cc1cnc(CC(=O)Nc2cc([C@H]3CC[C@@H](OC(=O)NC4(C)CC4)C3)[nH]n2)cn1 [Example 428, (1R,3S)-3-(3-{[(5-methylpyrazin-2-yl)acetyl]amino}-1H-pyrazol-5-yl)cyclopentyl (1-methylcyclopropyl)carbamate] | 0.4 | 30.1
22 | CCNC(=O)O[C@@H]1CC[C@H](c2cc(NC(=O)Cc3ccnc(OC)c3)n[nH]2)C1 [Example 232, (1R,3S)-3-(3-{[(2-methoxypyridin-4-yl)acetyl]amino}-1H-pyrazol-5-yl)cyclopentyl ethylcarbamate] | 1.54 | 34.1
23 | CC[C@H](C)NC(=O)O[C@@H]1CC[C@H](c2cc(NC(=O)Cc3nc(C)cs3)n[nH]2)C1 [Example 343, (1R,3S)-3-(3-{[(4-methyl-1,3-thiazol-2-yl)acetyl]amino}-1H-pyrazol-5-yl)cyclopentyl (2S)-butan-2-ylcarbamate] | 0.77 | 26.1
24 | CC(C)(C)NC(=O)O[C@@H]1CC[C@H](c2cc(NC(=O)Cc3ccccn3)n[nH]2)C1 [Example 294, (1R,3S)-3-{3-[(pyridin-2-ylacetyl)amino]-1H-pyrazol-5-yl}cyclopentyl tert-butylcarbamate] | 0.62 | 32
25 | Cc1cnc(CC(=O)Nc2cc([C@H]3CC[C@@H](OC(=O)NC4(C)CCC4)C3)[nH]n2)o1 [Example 118] | 0.22 | 17.8
26 | Cc1ncc(CC(=O)Nc2cc([C@@H]3CC[C@H](OC(=O)N[C@H]4CC[C@](C)(O)CC4)C3)[nH]n2)s1 [Example 563, (1S,3R)-3-(3-{[(2-methyl-1,3-thiazol-5-yl)acetyl]amino}-1H-pyrazol-5-yl)cyclopentyl (trans-4-hydroxy-4-methylcyclohexyl)carbamate] | 1.8 | 4.35
27 | Cc1cc(CC(=O)Nc2cc([C@H]3CC[C@@H](OC(=O)N4[C@@H](C)CC[C@@H]4C)C3)[nH]n2)on1 [Example 638, (1R,3S)-3-(3-{[(3-methyl-1,2-oxazol-5-yl)acetyl]amino}-1H-pyrazol-5-yl)cyclopentyl (2S,5S)-2,5-dimethylpyrrolidine-1-carboxylate] | 0.28 | 14.9
28 | O=C(Cc1cc(F)cc(F)c1)Nc1cc([C@@H]2CC[C@H](OC(=O)N[C@H]3CC[C@H](O)CC3)C2)[nH]n1 [Example 28] | 0.18 | 4.5
29 | C[C@H]1CCCN1C(=O)O[C@@H]1CC[C@H](c2cc(NC(=O)Cc3cnc4ncnn4c3)n[nH]2)C1 [Example 141] | 0.08 | 5.75
30 | CC[C@H](C)NC(=O)O[C@@H]1CC[C@H](c2cc(NC(=O)Cc3cccc4c3CN(C)C4=O)n[nH]2)C1 [Example 361, (1R,3S)-3-(3-{[(2-methyl-1-oxo-2,3-dihydro-1H-isoindol-4-yl)acetyl]amino}-1H-pyrazol-5-yl)cyclopentyl (2S)-butan-2-ylcarbamate] | 0.94 | 25.6
31 | Cc1cc(CC(=O)Nc2cc([C@H]3CC[C@@H](OC(=O)N(C)C(C)C)C3)[nH]n2)on1 [Example 289, (1R,3S)-3-(3-{[(3-methyl-1,2-oxazol-5-yl)acetyl]amino}-1H-pyrazol-5-yl)cyclopentyl methyl(propan-2-yl)carbamate] | 0.49 | 10.6
32 | CC1(C)CCCN1C(=O)O[C@@H]1CC[C@H](c2cc(NC(=O)Cc3cnco3)n[nH]2)C1 [Example 138] | 0.23 | 7.06
33 | CC(C)(C)NC(=O)O[C@@H]1CC[C@H](c2cc(NC(=O)Cc3cnc(C(F)(F)F)cn3)n[nH]2)C1 [Example 317, (1R,3S)-3-[3-({[5-(trifluoromethyl)pyrazin-2-yl]acetyl}amino)-1H-pyrazol-5-yl]cyclopentyl tert-butylcarbamate] | 0.26 | 46
34 | CC[C@H](C)NC(=O)O[C@H]1CC[C@@H](c2cc(NC(=O)Cc3ccno3)n[nH]2)C1 [Example 30] | 0.16 | 20.6
35 | COc1cc(CC(=O)Nc2cc([C@H]3CC[C@@H](OC(=O)N[C@@H](C)[C@@H](C)F)C3)[nH]n2)ccn1 [Example 101] | 0.28 | 20.9
36 | CCCNC(=O)O[C@@H]1CC[C@H](c2cc(NC(=O)Cc3cc(C)no3)n[nH]2)C1 [Example 178, (1R,3S)-3-(3-{[(3-methyl-1,2-oxazol-5-yl)acetyl]amino}-1H-pyrazol-5-yl)cyclopentyl propylcarbamate] | 1.1 | 21.4
